{
  "source": "patent US8252814B2",
  "about": "“Agents and crystals for improving excretory potency of urinary bladder” (priority 1998, dated 2012)",
  "assay_type_in_all_cases": "in vivo, Hartley male guinea pigs",
  "key": {"urinary bladder": {"test_system": "urinary bladder", "assay": "Potentiation effect for rhythmic contraction of urinary bladder in guinea pig, Experimental Example 2", "conditions": "Cavia porcellus, iv, read-out: AUC200 (mg/kg, i.v.)", "experimental": "Potentiation effect of the compounds disclosed in Reference Examples for rhythmic contraction of urinary bladder was examined using Hartley male guinea pigs. Hartley male guinea pigs (SLC) weighing about 300 g were anesthetized with urethane (1.2 g/kg, i.p.), held, and incised at the midline of abdomen to expose the bladder. The urethra was ligated, and a polyethylene tube (PE-50) was inserted into the bladder. The internal pressure of the bladder was measured with a blood pressure amplifier (Nippon Koden), and the data was collected on a personal computer through an A/D converter (MP-30, Biopac Systems). A proper amount of physiological saline was injected into the bladder through a cannula to induce rhythmic contraction of the to bladder.\nThe area (AUC) that is formed by a curve of the internal pressure of the bladder and a base line was calculated through analytical software (Studentlab pro 2.1.5, Biopac Systems) to evaluate the effect of the test compounds. The curve of the internal pressure is made based on the bladder contraction immediately before administration of the test compound and the first contraction 5 minutes after the administration. From the dose-dependent curve of AUC, the dose at which AUC before drug administration was increased 2 times (AUC200) was calculated to determine potency of contraction-enhancing effect of the test compounds for the muscle of urinary bladder. In addition, the potency of contraction-enhancing effect of […] for the muscle of bladder was determined in the same manner as mentioned above."}, "guinea pigs [1]": {"test_system": "guinea pigs", "assay": "Effect on urination efficiency in guinea pigs, Experimental Example 3", "conditions": "for Efficiency of Urination (%) Before adm. / Efficiency of Urination (%) After adm. / Improvement of Efficiency (%): guinea pig; for Efficiency of Urination (%) Before adm.: before administration; for Efficiency of Urination (%) After adm. / Improvement of Efficiency (%): 30 minutes after administration", "description": "Effect of the compounds of Reference Examples on urination efficiency was examined using Hartley male guinea pigs. Six to ten Hartley male guinea pigs weighing 346.5±3.5 g (SLC) were employed in each treated group. Guinea pigs were anesthetized with urethane, and held, and the bladder was exposed. Two polyethylene tubes (PE-50 and PE-100) were inserted into the bladder. One (PE-50) of the tubes was used in infusion of physiological saline, and the other (PE-100) was used for measurement of the internal pressure of the bladder. Saline was infused continuously at a flow rate of 0.3 mL/min. The infusion was stopped at the time when intermittent urination was confirmed at least 3 times, and the whole saline in bladder was removed. Again, infusion was started, and stopped at the time when a rise of the pressure in bladder was confirmed immediately before urination, and the time required for infusion and the weight of excreted urine were measured. Efficiency of urination was calculated from the following equation. Efficiency of urination (%)=100×Excreted volume (mL)/Infusion time (min)×0.3 (mL/min)\nMeasurement was made at least 2 times before administration of the test compound, and then the test compound was dissolved in distilled water and administered intravenously. […] Effect by administration of solvents was also confirmed.\nThe average measured value before administration of the test compounds was regarded as the value before administration, and applied to the paired-t test for a significant difference test with the value after the administration. (** p<0.01, * p<0.05)"}, "guinea pigs [2]": {"test_system": "guinea pigs", "assay": "Effect on the flow rate of urine in guinea pigs, single or combined use, Experimental Example 4", "description": "Effect on the flow rate of urine by single or combined use of Compounds of Reference Examples, distigmine, prazosin, and tamsulosin was examined using Hartley male guinea pigs. Four to six Hartley male guinea pigs weighing about 350 g (SLC) were employed in each treated group. Guinea pigs were anesthetized with urethane, and held, and the bladder was exposed. Two polyethylene tubes (PE-100) were inserted into the bladder. One of the tubes was used in infusion of physiological saline, and the other used for measurement of the internal pressure of the bladder. Saline was infused continuously at a flow rate of 0.3 mL/min. The infusion was stopped at the time when intermittent urination was confirmed at least 3 times, and the whole saline in bladder was removed. Again, infusion was started, and stopped at the time when a rise of the pressure in bladder was confirmed immediately before urination. Excreted urine was weighed on an electronic force balance (HX-400, A&D). Analogue data of the internal pressure of the bladder and urine weight were input in an AD converter (MP-30, Biopac Systems) and the digital signal was analyzed by means of purpose-made software (Student lab pro 2.1.5, Biopac Systems). Sampling interval of the date was fixed at 0.1 second, and the value of urine weight was differentiated to determine the flow rate of urine. In order to remove data noise of the excretion volume and flow rate of urine, the data was adapted to a lowcut filter at 0.5 Hz.\nMeasurement was made 2 times before administration of the test compound, and then the test compound was administered intravenously. Again, measurement was made 10 minutes after administration of the test compound.\nThe average measured value before administration of the test compounds was regarded as the value before administration, and the rate of change of the values from the ante-administration to the post-administration was calculated to compare between the groups by means of the Dunnet's test."}},
  "note": "Marks after values point to notes of the source that are not given here.",
  "data": [
    {"molecule": "CN(CCCCCCN(C)C(=O)Oc1ccc[n+](C)c1)C(=O)Oc1ccc[n+](C)c1", "note": "[Distigmine, reference compound]", "values": [
      {"measurement": "ED (2-fold bladder contraction AUC)", "setting": "urinary bladder", "result": 0.1, "unit": "mg/kg"},
      {"measurement": "improvement of urination efficiency (in words)", "setting": "guinea pigs [1]; conclusion from Table 7", "result": "poor and it makes the efficiency worse at a high dose"},
      {"measurement": "Efficiency of Urination (%) Before adm.", "setting": "guinea pigs [1]; 0.1 mg/kg i.v. group", "result": "79.1 ± 5.7", "unit": "%"},
      {"measurement": "Efficiency of Urination (%) After adm.", "setting": "guinea pigs [1]; 0.1 mg/kg i.v.", "result": "90.9 ± 2.7", "unit": "%"},
      {"measurement": "Improvement of Efficiency (%)", "setting": "guinea pigs [1]; 0.1 mg/kg i.v.", "result": 20.4, "unit": "%"},
      {"measurement": "Efficiency of Urination (%) Before adm.", "setting": "guinea pigs [1]; 0.3 mg/kg i.v. group (distigmine)", "result": "67.4 ± 4.3", "unit": "%"},
      {"measurement": "Efficiency of Urination (%) After adm.", "setting": "guinea pigs [1]; 0.3 mg/kg i.v.", "result": "75.3 ± 3.7", "unit": "%"},
      {"measurement": "Improvement of Efficiency (%)", "setting": "guinea pigs [1]; 0.3 mg/kg i.v.", "result": 14.7, "unit": "%"},
      {"measurement": "Efficiency of Urination (%) Before adm.", "setting": "guinea pigs [1]; 1 mg/kg i.v. group (distigmine)", "result": "78.6 ± 6.7", "unit": "%"},
      {"measurement": "Efficiency of Urination (%) After adm.", "setting": "guinea pigs [1]; 1 mg/kg i.v.", "result": "67.8 ± 4.6", "unit": "%"},
      {"measurement": "Improvement of Efficiency (%)", "setting": "guinea pigs [1]; 1 mg/kg i.v.", "result": "−11.6", "unit": "%"},
      {"measurement": "Efficiency of Urination (%) Before adm.", "setting": "guinea pigs [1]; 3 mg/kg i.v. group (distigmine)", "result": "68.6 ± 7.0", "unit": "%"},
      {"measurement": "Efficiency of Urination (%) After adm.", "setting": "guinea pigs [1]; 3 mg/kg i.v.", "result": "48.1 ± 8.5", "unit": "%"},
      {"measurement": "Improvement of Efficiency (%)", "setting": "guinea pigs [1]; 3 mg/kg i.v.", "result": "−30.9** %"},
      {"measurement": "improvement of the flow rate of urine (in words)", "setting": "guinea pigs [2]; conclusion from Tables 8 and 9, alone and in combination with α-blockers", "result": "poor and not enhanced even in combination with an α-blocker prazosin"},
      {"measurement": "Flow Rate (mL/sec) Ante-admn.", "setting": "guinea pigs [2]; guinea pig, distigmine 1.0 mg/kg i.v. group, before administration (Table 8)", "result": "0.25 ± 0.05", "unit": "mL/s"},
      {"measurement": "Flow Rate (mL/sec) Post-admn.", "setting": "guinea pigs [2]; guinea pig, distigmine 1.0 mg/kg i.v., 10 minutes after administration (Table 8)", "result": "0.22 ± 0.05", "unit": "mL/s"},
      {"measurement": "Improvement (%)", "setting": "guinea pigs [2]; guinea pig, distigmine 1.0 mg/kg i.v., 10 minutes after administration, control DMSO (Table 8)", "result": "−8.31 ± 11.13", "unit": "%"}
    ]}
  ]
}
